This is an account of results in paper PMC9124820, “In vitro evaluation of fenfluramine and norfenfluramine as victims of drug interactions” (Pharmacology Research & Perspectives, 2022).

In this series the target is T1, rCYP2B6 (Homo sapiens, UniProt P20813).
T1 construct: purchased Cypex, Ltd; host or cells: Escherichia coli
T1 sequence (P20813 1-491): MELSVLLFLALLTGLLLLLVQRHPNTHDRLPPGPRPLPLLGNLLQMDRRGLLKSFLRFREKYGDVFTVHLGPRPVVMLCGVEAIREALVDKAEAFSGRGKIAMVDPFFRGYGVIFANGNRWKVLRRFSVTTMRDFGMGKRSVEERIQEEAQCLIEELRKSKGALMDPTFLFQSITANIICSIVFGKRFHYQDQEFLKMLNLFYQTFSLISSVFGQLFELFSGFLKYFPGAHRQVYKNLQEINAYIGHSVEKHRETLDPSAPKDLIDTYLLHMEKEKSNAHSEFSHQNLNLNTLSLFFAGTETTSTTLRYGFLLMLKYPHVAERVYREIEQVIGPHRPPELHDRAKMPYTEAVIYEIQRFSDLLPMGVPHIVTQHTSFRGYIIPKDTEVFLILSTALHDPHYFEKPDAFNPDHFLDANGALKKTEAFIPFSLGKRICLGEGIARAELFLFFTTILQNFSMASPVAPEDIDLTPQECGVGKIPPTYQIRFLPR
The series is described as follows: Reaction phenotyping with rCYP2B6. The class given is in vitro ADME. Here is the method: For FFA and nFFA reaction phenotyping experiments, LC‐MS/MS experiments were performed using an API 4000 QTRAP or QTRAP 5500 mass spectrometer (SCIEX) with positive electrospray ionization. Chromatography was performed using an Atlantis dC18 analytical column (100 × 2.1 mm, 5 µm; Waters Corporation). Mobile phases were 0.2% v/v formic acid in water and 0.2% v/v formic acid in methanol. FFA and nFFA were eluted at a flow rate of 0.5 mL/min with a linear gradient of 40%−95% methanol from 0.20−2.1 min. The mass transitions monitored were 232.0>109.0 for FFA, 204.0>159.0 for nFFA, 348.0>330.0 for 1’‐hydroxymidazolam‐d4 internal standard (FFA reaction phenotyping), and 262.0>244.0 for hydroxybupropion‐d6 internal standard (nFFA reaction phenotyping). Analyst Instrument Control and Data Processing software (v. 1.6.1) was used for collecting and integrating data (SCIEX). Calibration curves ranging from 1.25 µM−0.01 µM were used to quantify nFFA. Relative quantitation was used to approximate the amount of FFA test material used.
Methods used to evaluate the role of CYP450s in the metabolism of FFA have been described.[22], [23], [24] […] Supernatant fractions were analyzed by LC‐MS/MS.

Where the note is “1 µM FFA, rCYP2B6”, `CCNC(C)Cc1cccc(C(F)(F)F)c1` (racemic) [FFA, (RS)‐ethyl (α‐methyl‐3‐trifluoromethylphenethyl)amine] had an FFA disappearance of 10%. The molecule also yielded an FFA loss (10 μM FFA, rCYP2B6, 60 min) of 21%.
